Entries after “also recorded” stand apart in the source; their conditions may differ. Read-outs that look alike come from different tables or passages of the source.
How the values were obtained:
[1] = target: TYK2 (Homo sapiens, UniProt P29597); test: KdELECT Kd measurement (KINOMEscan platform), TYK2; assay type: binding; design: purchased Eurofins DiscoveRx; conditions: read-out: Kd to JAK family kinases, TYK2
[2] = tested on: MHH-CALL-4; test: Cytotoxicity assay (resazurin, 72 hours) in MHH-CALL-4 cells; assay type: cell-based, human; conditions: for killing of MHH-CALL-4 cells (activity in words): correlated with degradation of GSPT1 and JAK2, FIG. 7F
[3] = tested on: Human CD45+ leukemic cells from patient derived xenografts (PDX); test: Ex vivo cytotoxicity (MTT) in PDX leukemic cells; conditions: FIG. 6A
[4] = Caco-2 cell permeability; assay type: in vitro ADME; conditions: human, Caco-2; A to B (Table 4); read-out: Cac2 Papp A/B
Description: Compound Caco-2 cell permeability was determined using the Transwell® 0.4 μm polycarbonate membrane 96-well as described before (Uchida, et al. (2009) J Pharmacol Toxicol Methods 59(1): 39-43). Briefly, Caco-2 cells monolayers were incubated over 2 hours at 37° C. Fractions were collected from receivers (basal side, B), and concentrations were assessed by UPLC/MS (Waters; Milford, MA). All compounds were tested in triplicates. The A→B (or B→A) apparent permeability coefficients (Papp) of each compound were calculated using the equation, Papp=dQ/dt×1/AC0, where dQ/dt equals the flux of a drug across the monolayer, A equals the total insert well surface area, and C0 is the initial concentration of substrate in the donor compartment.

[5] = target: T1, JAK2 (Homo sapiens, UniProt O60674, I682F); test: Target degradation (Western Blot) in MHH-CALL-4 cells, JAK2; assay type: cell-based; conditions: 100 nM PROTAC at 24 h
T1 construct: endogenous in cells; host or cells: MHH-CALL-4
T1 sequence (O60674 whole entry I682F): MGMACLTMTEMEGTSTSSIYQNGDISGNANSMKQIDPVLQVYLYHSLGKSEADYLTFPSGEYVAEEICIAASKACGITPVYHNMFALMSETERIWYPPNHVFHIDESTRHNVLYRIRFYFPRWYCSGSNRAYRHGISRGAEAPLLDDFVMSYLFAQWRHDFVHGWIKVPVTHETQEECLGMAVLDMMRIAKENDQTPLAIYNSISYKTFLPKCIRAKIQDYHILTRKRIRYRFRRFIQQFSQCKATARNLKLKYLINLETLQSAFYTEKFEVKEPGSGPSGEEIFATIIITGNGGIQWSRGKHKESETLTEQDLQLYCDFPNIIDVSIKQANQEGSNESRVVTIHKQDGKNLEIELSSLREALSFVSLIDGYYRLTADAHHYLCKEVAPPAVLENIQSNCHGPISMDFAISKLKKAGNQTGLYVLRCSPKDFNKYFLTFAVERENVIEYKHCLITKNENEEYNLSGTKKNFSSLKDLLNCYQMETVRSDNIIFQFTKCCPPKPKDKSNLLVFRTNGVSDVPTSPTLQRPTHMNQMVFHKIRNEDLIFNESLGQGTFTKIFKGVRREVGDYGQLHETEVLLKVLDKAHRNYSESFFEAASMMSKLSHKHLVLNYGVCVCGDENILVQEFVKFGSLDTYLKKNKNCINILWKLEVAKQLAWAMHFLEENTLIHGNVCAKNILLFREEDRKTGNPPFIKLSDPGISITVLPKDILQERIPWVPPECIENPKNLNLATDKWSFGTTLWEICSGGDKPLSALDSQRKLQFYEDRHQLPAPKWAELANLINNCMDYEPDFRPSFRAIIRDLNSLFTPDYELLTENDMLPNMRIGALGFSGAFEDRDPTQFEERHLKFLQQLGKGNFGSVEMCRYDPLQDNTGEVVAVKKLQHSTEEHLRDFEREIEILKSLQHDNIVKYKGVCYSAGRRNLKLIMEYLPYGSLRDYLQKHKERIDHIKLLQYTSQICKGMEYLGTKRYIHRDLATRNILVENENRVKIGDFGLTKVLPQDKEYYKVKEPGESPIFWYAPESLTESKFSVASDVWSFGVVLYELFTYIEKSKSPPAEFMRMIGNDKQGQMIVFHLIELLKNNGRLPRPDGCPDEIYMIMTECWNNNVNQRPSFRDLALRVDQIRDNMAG

[6] = target: T2, GSPT1 (Homo sapiens, UniProt P15170+Q96SW2); test: Target degradation (Western Blot) in MHH-CALL-4 cells, GSPT1; assay type: cell-based; conditions: 100 nM PROTAC at 24 h
T2 construct: endogenous in cells; host or cells: MHH-CALL-4
T2 sequence (P15170 whole entry): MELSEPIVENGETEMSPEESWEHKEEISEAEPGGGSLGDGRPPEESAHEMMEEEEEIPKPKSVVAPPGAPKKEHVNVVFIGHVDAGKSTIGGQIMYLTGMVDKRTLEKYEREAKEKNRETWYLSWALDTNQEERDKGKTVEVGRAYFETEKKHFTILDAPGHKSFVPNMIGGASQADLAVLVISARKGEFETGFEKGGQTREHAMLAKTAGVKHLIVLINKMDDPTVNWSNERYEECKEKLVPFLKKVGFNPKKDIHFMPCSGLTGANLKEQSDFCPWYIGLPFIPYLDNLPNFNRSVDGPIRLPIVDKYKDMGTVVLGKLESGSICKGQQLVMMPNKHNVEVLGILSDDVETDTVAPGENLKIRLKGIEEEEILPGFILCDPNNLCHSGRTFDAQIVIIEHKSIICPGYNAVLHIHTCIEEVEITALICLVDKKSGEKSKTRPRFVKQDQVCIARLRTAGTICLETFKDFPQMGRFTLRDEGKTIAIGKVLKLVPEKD
T2 sequence (Q96SW2 whole entry): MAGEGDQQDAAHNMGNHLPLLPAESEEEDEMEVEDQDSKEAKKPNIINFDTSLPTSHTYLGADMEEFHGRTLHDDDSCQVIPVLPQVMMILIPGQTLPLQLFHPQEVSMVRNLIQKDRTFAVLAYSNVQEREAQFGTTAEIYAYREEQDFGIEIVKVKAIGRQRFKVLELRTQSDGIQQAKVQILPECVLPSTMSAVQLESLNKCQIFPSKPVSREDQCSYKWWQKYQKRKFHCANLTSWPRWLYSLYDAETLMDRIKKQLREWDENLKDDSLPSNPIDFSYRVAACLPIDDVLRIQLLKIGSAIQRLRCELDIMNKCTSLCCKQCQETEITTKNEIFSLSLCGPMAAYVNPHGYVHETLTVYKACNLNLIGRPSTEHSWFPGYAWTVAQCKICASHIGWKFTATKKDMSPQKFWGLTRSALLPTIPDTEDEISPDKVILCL
T2 sequence (Q16531 whole entry partner): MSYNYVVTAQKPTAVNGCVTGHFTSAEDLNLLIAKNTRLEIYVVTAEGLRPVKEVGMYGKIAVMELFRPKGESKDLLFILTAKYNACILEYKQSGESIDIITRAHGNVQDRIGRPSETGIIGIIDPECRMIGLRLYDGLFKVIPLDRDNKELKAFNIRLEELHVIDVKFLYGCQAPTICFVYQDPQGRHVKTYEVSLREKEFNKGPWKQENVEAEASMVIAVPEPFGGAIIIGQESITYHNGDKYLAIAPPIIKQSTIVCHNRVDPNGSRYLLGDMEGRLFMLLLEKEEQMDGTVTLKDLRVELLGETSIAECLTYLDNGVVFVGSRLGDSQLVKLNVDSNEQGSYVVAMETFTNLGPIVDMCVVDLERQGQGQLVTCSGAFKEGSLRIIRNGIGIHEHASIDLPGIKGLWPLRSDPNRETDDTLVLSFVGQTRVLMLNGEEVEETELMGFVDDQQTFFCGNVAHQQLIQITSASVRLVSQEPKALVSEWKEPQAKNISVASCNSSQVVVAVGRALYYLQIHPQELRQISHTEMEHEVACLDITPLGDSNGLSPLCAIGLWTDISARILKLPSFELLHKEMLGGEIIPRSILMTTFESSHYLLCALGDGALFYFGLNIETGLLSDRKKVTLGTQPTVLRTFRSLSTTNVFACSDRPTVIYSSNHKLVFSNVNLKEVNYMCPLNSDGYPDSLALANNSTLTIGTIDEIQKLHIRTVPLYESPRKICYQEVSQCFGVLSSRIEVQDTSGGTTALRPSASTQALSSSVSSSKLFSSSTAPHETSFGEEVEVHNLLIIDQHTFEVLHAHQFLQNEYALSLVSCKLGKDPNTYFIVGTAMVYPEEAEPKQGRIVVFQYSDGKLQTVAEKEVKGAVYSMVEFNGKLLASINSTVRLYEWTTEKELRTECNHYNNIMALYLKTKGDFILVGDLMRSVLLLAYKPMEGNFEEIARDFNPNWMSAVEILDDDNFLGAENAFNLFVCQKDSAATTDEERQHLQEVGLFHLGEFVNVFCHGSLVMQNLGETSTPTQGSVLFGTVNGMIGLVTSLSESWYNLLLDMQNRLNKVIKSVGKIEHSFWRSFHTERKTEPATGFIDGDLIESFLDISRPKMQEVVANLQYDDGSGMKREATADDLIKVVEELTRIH

[7] = target: T3, IKZF1 (Homo sapiens, UniProt Q13422+Q96SW2); test: Target degradation (Western Blot) in MHH-CALL-4 cells, IKZF1; assay type: cell-based; conditions: 100 nM PROTAC at 24 h
T3 construct: endogenous in cells; host or cells: MHH-CALL-4
T3 sequence (Q13422 whole entry): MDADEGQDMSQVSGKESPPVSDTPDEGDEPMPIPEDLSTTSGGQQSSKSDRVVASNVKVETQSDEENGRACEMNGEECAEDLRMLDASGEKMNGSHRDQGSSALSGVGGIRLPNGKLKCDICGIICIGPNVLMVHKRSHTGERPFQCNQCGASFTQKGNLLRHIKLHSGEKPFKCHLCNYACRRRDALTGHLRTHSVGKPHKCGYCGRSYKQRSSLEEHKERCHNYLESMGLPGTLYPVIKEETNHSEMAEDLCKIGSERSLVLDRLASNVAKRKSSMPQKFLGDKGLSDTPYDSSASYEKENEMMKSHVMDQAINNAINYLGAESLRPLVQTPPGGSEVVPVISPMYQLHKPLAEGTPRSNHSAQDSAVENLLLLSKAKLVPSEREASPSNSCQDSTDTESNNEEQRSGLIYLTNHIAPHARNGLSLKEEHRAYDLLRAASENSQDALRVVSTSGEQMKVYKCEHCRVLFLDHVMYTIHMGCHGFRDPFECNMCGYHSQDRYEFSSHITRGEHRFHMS
T3 sequence (Q96SW2 whole entry): as the sequence (Q96SW2 whole entry) above
T3 sequence (Q16531 whole entry partner): as the sequence (Q16531 whole entry partner) above

[8] = Homo sapiens, MHHCALL4, Table 6, starred: EC50 from partial dose response curve, read-out: MHHCALL4 EC50 from partial dose response curve
[9] = Homo sapiens, MHHCALL4, MHH-CALL-4 (Table 2), read-out: EC50 in MHH-CALL-4
[10] = Homo sapiens, MHHCALL4, MHH-CALL-4 (Table 1), read-out: EC50

Chain of TYK2 (P29597 whole entry): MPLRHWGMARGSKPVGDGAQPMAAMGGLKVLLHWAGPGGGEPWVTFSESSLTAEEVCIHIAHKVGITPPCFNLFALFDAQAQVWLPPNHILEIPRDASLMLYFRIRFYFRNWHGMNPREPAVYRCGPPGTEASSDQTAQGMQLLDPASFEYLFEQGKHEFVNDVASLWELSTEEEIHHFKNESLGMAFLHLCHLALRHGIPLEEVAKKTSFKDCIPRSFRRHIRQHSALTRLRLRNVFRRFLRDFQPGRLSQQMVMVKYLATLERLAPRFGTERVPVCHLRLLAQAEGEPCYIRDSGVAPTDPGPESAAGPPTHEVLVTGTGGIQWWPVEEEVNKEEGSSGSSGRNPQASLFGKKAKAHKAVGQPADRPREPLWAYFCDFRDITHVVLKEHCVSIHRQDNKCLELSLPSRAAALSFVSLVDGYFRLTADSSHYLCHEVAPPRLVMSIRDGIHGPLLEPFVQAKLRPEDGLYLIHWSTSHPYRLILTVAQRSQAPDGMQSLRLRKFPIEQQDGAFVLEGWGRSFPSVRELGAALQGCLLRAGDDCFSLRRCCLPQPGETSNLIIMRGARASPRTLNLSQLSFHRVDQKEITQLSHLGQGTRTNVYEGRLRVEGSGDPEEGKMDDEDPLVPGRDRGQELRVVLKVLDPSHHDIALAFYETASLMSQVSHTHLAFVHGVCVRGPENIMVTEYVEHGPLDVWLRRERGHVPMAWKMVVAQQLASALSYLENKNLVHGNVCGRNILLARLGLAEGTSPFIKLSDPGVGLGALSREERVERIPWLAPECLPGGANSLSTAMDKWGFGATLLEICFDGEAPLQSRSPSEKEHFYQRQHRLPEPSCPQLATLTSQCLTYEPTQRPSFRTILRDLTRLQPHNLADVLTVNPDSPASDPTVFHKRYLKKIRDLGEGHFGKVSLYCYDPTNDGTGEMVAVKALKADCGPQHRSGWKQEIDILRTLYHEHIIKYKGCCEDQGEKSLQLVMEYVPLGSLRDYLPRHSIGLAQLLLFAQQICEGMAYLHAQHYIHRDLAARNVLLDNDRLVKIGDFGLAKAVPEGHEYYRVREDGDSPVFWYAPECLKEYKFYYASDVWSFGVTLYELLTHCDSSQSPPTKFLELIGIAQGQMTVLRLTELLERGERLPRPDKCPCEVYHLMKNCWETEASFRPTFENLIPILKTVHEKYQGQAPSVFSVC

`CCS(=O)(=O)N1CC(CC#N)(n2cc(-c3ncnc4[nH]ccc34)cn2)C1` [Baricitinib, baricitinib, reference compound] gave a Kd [1] of 0.0013 µM.
For `CC(=O)Nc1cc(Oc2ccc3c(nc(Nc4ccc(F)cc4F)n3C)c2C)ccn1` [CHZ868, reference compound], the EC50 ([2]; MHH-CALL-4 (Table 2), read-out: EC50 in MHH-CALL-4) was 0.18 µM and the “cytotoxicity in PDX cells ex vivo” value [3] was “not”.
With `CCS(=O)(=O)N1CC(CC#N)(n2cc(-c3nc(Nc4ccc(C(=O)NCCN5CCN(c6ccc7c(c6)C(=O)N(C6CCC(=O)NC6=O)C7=O)CC5)cc4)nc4[nH]ccc34)cn2)C1` (centres unmarked) [Compound 8] the “killing of MHH-CALL-4 cells (activity in words)” value (from here on “killing of MHH-CALL-4 cells”) [2] was “intermediately effective; also recorded: reduced activity” and the Papp A→B at 2 h [4] was 0.02 nm/s.
With `CCS(=O)(=O)N1CC(CC#N)(n2cc(-c3nc(Nc4ccc(C(=O)NCCCNc5ccc6c(c5)C(=O)N(C5CCC(=O)NC5=O)C6=O)cc4)nc4[nH]ccc34)cn2)C1` (centres unmarked) [Compound 53] the EC50 [2, 8] was 0.0346 µM, the “killing of MHH-CALL-4 cells” value [2] was “intermediately effective” and the “Target Degradation (Western Blot) JAK2” value [5] was 1 (1 = None (<20% degradation at 24 h)). The “Target Degradation (Western Blot) GSPT1” value [6] was 3 (3 = Strong (>60% degradation at 24 h)).
For `CCS(=O)(=O)N1CC(CC#N)(n2cc(-c3nc(Nc4ccc(C(=O)NCCCN5CCN(c6ccc7c(c6)C(=O)N(C6CCC(=O)NC6=O)C7=O)CC5)cc4)nc4[nH]ccc34)cn2)C1` (centres unmarked) [Compound 56], the EC50 [2, 8] was 0.562 µM, the “killing of MHH-CALL-4 cells” value [2] was “intermediately effective” and the “Target Degradation (Western Blot) JAK2” value [5] was 2 (2 = Medium (20-40% degradation at 24 h)). For the same compound, the “Target Degradation (Western Blot) IKZF1” value [7] was 1 (1 = None (<20% degradation at 24 h)).
In the case of `CCS(=O)(=O)N1CC(CC#N)(n2cc(-c3nc(Nc4ccc(C(=O)NCCCNC(=O)COc5cccc6c5C(=O)N(C5CCC(=O)NC5=O)C6=O)cc4)nc4[nH]ccc34)cn2)C1` (centres unmarked) [Compound 59], the EC50 [2, 8] is reported as 4.19 µM, the “killing of MHH-CALL-4 cells” value [2] is reported as “relatively low activity” and the “Target Degradation (Western Blot) JAK2” value [5] is reported as 1 (1 = None (<20% degradation at 24 h)). For the same compound, the “Target Degradation (Western Blot) IKZF1” value [7] was 1 (1 = None (<20% degradation at 24 h)).
With `CCS(=O)(=O)N1CC(CC#N)(n2cc(-c3nc(Nc4ccc(C(=O)NCCCCNc5cccc6c5C(=O)N(C5CCC(=O)N(C)C5=O)C6=O)cc4)nc4[nH]ccc34)cn2)C1` (centres unmarked) [Compound 61] the EC50 [2, 8] was 0.0515 µM, the “killing of MHH-CALL-4 cells” value [2] was “intermediately effective” and the “Target Degradation (Western Blot) JAK2” value [5] was 1 (1 = None (<20% degradation at 24 h)). For the same compound, the “Target Degradation (Western Blot) IKZF1” value [7] was 2 (2 = Medium (20-40% degradation at 24 h)).
In the case of `CCS(=O)(=O)N1CC(CC#N)(n2cc(-c3nc(Nc4ccc(C(=O)NCCCCNc5ccc6c(c5)C(=O)N(C5CCC(=O)NC5=O)C6=O)cc4)nc4[nH]ccc34)cn2)C1` (centres unmarked) [Compound 80], the EC50 ([2]; Homo sapiens, MHHCALL4, Table 6, no star, read-out: MHHCALL4 EC50) is reported as greater than 5.5 µM, the “killing of MHH-CALL-4 cells” value [2] is reported as “relatively low activity” and the “Target Degradation (Western Blot) JAK2” value [5] is reported as 1 (1 = None (<20% degradation at 24 h)). For the same compound, the “Target Degradation (Western Blot) IKZF1” value [7] was 1 (1 = None (<20% degradation at 24 h)).
Compound `Nc1cccc2c1CN(C1CCC(=O)NC1=O)C2=O` (centres unmarked) [Lenalidomide, lenalidomide, reference compound] has an EC50 [2, 9] of 34.5 µM.
`Nc1cccc2c1C(=O)N(C1CCC(=O)NC1=O)C2=O` (centres unmarked) [Pomalidomide, pomalidomide, reference compound] showed an EC50 [2, 9] of 63.7 µM.
`N#CC[C@H](C1CCCC1)n1cc(-c2ncnc3[nH]ccc23)cn1` [Ruxolitinib, ruxolitinib, reference compound] showed an EC50 ([2]; Homo sapiens, MHHCALL4, read-out: EC50 in MHH-CALL-4) of 25.8 µM and an EC50 ([2]; Homo sapiens, MHHCALL4, read-out: MHHCALL4 EC50) of 25.8 µM.
For `CCCn1cc(-c2nc(Nc3ccc(C(=O)NCCOCCOCCOCCOCCNc4cccc5c4C(=O)N(C4CCC(=O)NC4=O)C5=O)cc3)nc3[nH]ccc23)cn1` (centres unmarked) [SJ000986049], the EC50 [2, 10] was 2.3 µM.
With `CCCn1cc(-c2nc(Nc3ccc(C(=O)NCCOCCOCCOCCOCCOCCOCCNc4cccc5c4C(=O)N(C4CCC(=O)NC4=O)C5=O)cc3)nc3[nH]ccc23)cn1` (centres unmarked) [SJ000986050] the EC50 [2, 10] was 0.72 µM.
`CCCn1cc(-c2nc(NCCOCCOCCOCCOCCOCCOCCNC(=O)CNc3cccc4c3CN(C3CCC(=O)NC3=O)C4=O)nc3[nH]ccc23)cn1` (centres unmarked) [SJ000986078, 2-((2-(2,6-dioxopiperidin-3-yl)-1-oxoisoindolin-4-yl)amino)-N-(20-((4-(1-propyl-1H-pyrazol-4-yl)-7H-pyrrolo[2,3-d]pyrimidin-2-yl)amino)-3,6,9,12,15,18-hexaoxaicosyl)acetamide] gave an EC50 [2, 10] greater than 100 µM.
For `CCCn1cc(-c2nc(NCCOCCOCCOCCOCCNC(=O)CNc3cccc4c3CN(C3CCC(=O)NC3=O)C4=O)nc3[nH]ccc23)cn1` (centres unmarked) [SJ000986079, 2-((2-(2,6-dioxopiperidin-3-yl)-1-oxoisoindolin-4-yl)amino)-N-(14-((4-(1-propyl-1H-pyrazol-4-yl)-7H-pyrrolo[2,3-d]pyrimidin-2-yl)amino)-3,6,9,12-tetraoxatetradecyl)acetamide], the EC50 [2, 10] was greater than 100 µM.
Work on `CCCn1cc(-c2nc(Nc3ccc(C(=O)NCCOCCOCCNc4cccc5c4C(=O)N(C4CCC(=O)NC4=O)C5=O)cc3)nc3[nH]ccc23)cn1` (centres unmarked) [SJ000986339] yielded an EC50 [2, 10] greater than 100 µM.
Compound `CCCn1cc(-c2nc(Nc3ccc(NC(=O)CCOCCOCCOCCOCCOCCOCCNc4cccc5c4C(=O)N(C4CCC(=O)NC4=O)C5=O)cc3)nc3[nH]ccc23)cn1` (centres unmarked) [SJ000986341] has an EC50 [2, 10] of 5.83 µM.
In the case of `CCCn1cc(-c2nc(Nc3ccc(NC(=O)CCOCCOCCOCCOCCOCCNc4cccc5c4C(=O)N(C4CCC(=O)NC4=O)C5=O)cc3)nc3[nH]ccc23)cn1` (centres unmarked) [SJ000986342], the EC50 [2, 10] is reported as 6.89 µM.
Compound `CCCn1cc(-c2nc(Nc3ccc(C(=O)NCCOCCOCCOCCOCCOCCOCCNc4cccc5c4C(=O)N(C4CCCNC4=O)C5=O)cc3)nc3[nH]ccc23)cn1` (centres unmarked) [SJ000986343] has an EC50 [2, 10] of 12.8 µM.
For `O=C1CCC(N2C(=O)c3ccccc3C2=O)C(=O)N1` (centres unmarked) [Thalidomide, thalidomide, reference compound], the EC50 [2, 9] was 60 µM.

Source: patent US12624038B2, “Molecules and methods related to treatment of uncontrolled cellular proliferation” (ST. JUDE CHILDREN'S RESEARCH HOSPITAL, priority 2019, dated 2026)
